Source: paper PMC6269914, “In Vitro Evaluation of Novel Inhibitors against the NS2B-NS3 Protease of Dengue Fever Virus Type 4” (Molecules, 2013)

Key:
DENV4 NS2B-NS3pro [1] = molecular target: T1, DENV4 NS2B-NS3pro (Dengue virus type 4, UniProt Q2YHF0, DELINS1442-1474GGGGSGGGG); assay: In vitro inhibition assay of recombinant NS2B-NS3pro with fluorogenic AMC peptide substrate; format: biochemical, dengue virus type 4 (DENV4); conditions: primary inhibition assay at a 100 μM concentration of inhibitors; Table S1
T1 sequence (Q2YHF0 1475-1660, added parts left off, stated change not applied): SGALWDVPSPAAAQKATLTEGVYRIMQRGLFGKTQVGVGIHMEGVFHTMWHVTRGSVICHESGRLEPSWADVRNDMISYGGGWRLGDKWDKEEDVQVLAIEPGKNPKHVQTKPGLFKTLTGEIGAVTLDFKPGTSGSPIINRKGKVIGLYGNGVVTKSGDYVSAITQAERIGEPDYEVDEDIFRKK

DENV4 NS2B-NS3pro [2] = molecular target: T1, DENV4 NS2B-NS3pro; assay: Inhibitor enzyme kinetics (Lineweaver-Burk and Dixon plots) against NS2B-NS3pro; format: biochemical, dengue virus type 4 (DENV4); conditions: AMC peptide substrates
Method: Inhibitory kinetic experiments were performed at different constant inhibitor concentrations and different substrate concentrations. Lineweaver–Burk and Dixon plots were used to analyze the inhibition modes of these compounds. Ki values were calculated from the Dixon plots.
The type of inhibition was determined using Lineweaver–Burk plots, and Ki values were determined with a Dixon plot (1/v as a function of [I], inhibitor concentration) from different inhibitor concentrations.

Cc1cccc(C)c1-n1c(SCc2cc(=O)n3cc(Cl)ccc3n2)nc2c(sc(=S)n2-c2c(C)cccc2C)c1=O [Compound 22, 5-[[(7-chloro-4-oxo-4H-pyrido[1,2-a]pyrimidin-2-yl)methyl)sulfanyl)-3,6-bis(2,6-dimethylphenyl)-2-thioxo-2,3-dihydro[1,3]thiazolo[4,5-d]pyrimidin-7(6H)-one]
Inhibition Activity (DENV4 NS2B-NS3pro [1]): 91.65% | Inhibition mode (DENV4 NS2B-NS3pro [2]): competitive inhibitors
